Experimental data as given in US4361703A, “Para-amino(or nitro)phenyl N-acetylaminothioalkanoates” (priority 1977, dated 1982).

How the values were obtained:
[1] = mouse, in vivo, po
Protocol: (A)--Investigation of Serum Concentrations in Mice
36 Charles River COBS mice (18 males and 18 females) weighing 30 g each were deprived of food for 16 hours before the trial but were given their usual drinking water. Three groups, each containing 6 males and 6 females, received a dosage of 1 ml/100 g body weight per mouse, orally by stomach tube, of a suspension in 1% gum tragacanth of respectively:
Group X: 500 mg/kg of N-acetyl-para-aminophenol
A blood sample was taken by throat-slitting from one male and one female from each Group at each study time, i.e. 1/2, 1, 2, 4 and 24 hours after the oral administration.
At times 1/2, 1, 2 and 4 hours, each serum sample was divided into three 0.1 ml trial samples for the following three determinations:

[2] = Hydrolysis stability in tris buffer; assay type: physicochemical
Protocol: PREPARATION OF TRIS BUFFER
0.05 M tris buffer was made by dissolving 6.05 grams of tris-(hydroxymethyl)-methylamine in 1000 ml. of water, and adjusting the pH to 7.2 by the addition of 0.1 M HCl.
Standard solutions of 1×10^-4 M Compound A in analytical grade methanol (0.01 ml) were prepared, and tested in the simulated gastric and intestinal fluids, in tris buffer alone, in tris buffer with added hog liver esterase and also in serum. The solutions under test were incorporated in 1 ml. of each of the test fluids. A temperature of 30° C. was used for the assays involving the hog liver esterase, whereas a temperature of 37° C. was used for the assays involving the simulated gastric and intestinal fluids and the serum. After this, the mixture was allowed to stand and the supernatant liquid was spotted onto silica t.l.c. plates and developed in 90:10 chloroform/methanol. The mixture was then extracted with 5 mls of chloroform and the chloroform-containing mixture was filtered through phase-separating papers, which allow only the chloroform solution to pass through. The chloroform solution was also spotted onto silica t.l.c. plates and developed in 90:10 chloroform/methanol.

[3] = tested on: albino rats (Charles River CD-1 COBS); test: Acute oral toxicity in rats; assay type: in vivo
Protocol: (§1) (F)--Investigation of Acute Oral Toxicity in Rats
(§2) The investigation was carried out upon groups of 10 male and 10 female albino rats (Charles River CD-1 COBS) of 80-100 g body weight. […] Before the experiment they were fasted overnight, with water ad libitum. NAPA and Compound A were then administered orally by oesophageal intubation as suspensions (continuously shaken with an electromagnetic agitator) in 1% gum arabic at a volume of 2 ml/100 g body weight, and at dose levels of 1, 2, 4 and 8 g/kg. A control group received orally, under the same experimental conditions, merely 2 ml/100 g of the suspension vehicle. The rats were then kept under observation during seven days, while their behaviour patterns were observed and the mortality recorded

[4] = Acute oral toxicity in rats; assay type: in vivo; settings: rat, in vivo, po; for mortality at 24 h / mortality at 48 h / mortality at 72 h / mortality at 96 h / mortality at 120 h / mortality at 144 h / mortality at 168 h: Percentage Mortality
Protocol: as §1, §2

[5] = tested on: yeast-induced hyperthermia; test: Antipyretic activity, yeast-induced hyperthermia test in rats; assay type: in vivo, male Charles River rats; settings: compared with NAPA, equimolar basis, oral
Protocol: (D)--Investigation of Antipyretic Activity in Rats
Using the conventional procedure for the yeast-induced hyperthermia test, several groups of 10 male Charles River rats were given a subcutaneous injection of dried yeast. Immediately after the injection they were then medicated orally with respectively:
100 mg/kg of N-acetyl-para-aminophenol (NAPA);
80 mg/kg of NAPA+43.0 mg/kg of Compound A; and
60 mg/kg of NAPA+86.0 mg/kg of Compound A.
In the mixtures the amount of Compound A, N-acetyl-para-aminophenyl N'-acetyl-D,L-methionate, used was in each case equimolar with the 10%, 20% or 40% reduction in the amount of NAPA, so that all the medications were carried out at a level equivalent to 100 mg/kg of NAPA.

[6] = tested on: yeast-inflamed hind-paw pain-threshold; test: Analgesic activity, Randall-Selitto test in rats; assay type: in vivo, female Charles River rats; settings: for P of pain-threshold (t-test versus control): 2 millimoles/kg oral
Protocol: (C)--Investigation of Analgesic Activity in Rats
A control group received only the gum tragacanth vehicle.
In order to evaluate the effect of the treatment upon pain-thresholds, pressure was applied both to the injected hind-paw and to the other non-injected hind-paw. The pain-threshold was noted as the pressure at which the rat flinched, measured using an Ugo Basile "Analgesimeter" for both hind-paws of each rat at intervals of 1 hour, 3 hours, 5 hours and 22 hours after the administration, and expressed as the percentage of the pain-threshold pressure for the injected (and thus inflamed) hind-paw as against the non-injected (and thus healthy) hind-paw.

[7] = tested on: Charles River (CD-1 COBS) albino mice; test: in vivo
Protocol: (§3) (E)--Investigation of Acute Oral Toxicity in Mice
(§4) Charles River (CD-1 COBS) albino mice, 20-22 g in weight, were kept for some days in an air-conditioned animal house and fed with a standard diet (sterile VAR granules). They were fasted overnight before experiment, with water ad libitum. 15 Male mice and 15 female mice were used for each experiment.
(§5) N-Acetyl-para-aminophenol (NAPA) and N-acetyl-para-aminophenyl N'-acetyl-D,L-methionate (Compound A) were then administered to the mice, orally, as a suspension (shaken continuously with an electromagnetic agitator) in 5% gum arabic at a volume of 0.02 ml/g, either individually or in variously proportioned mixtures and at different dose levels, as shown in Table VII below.
(§6) A control group received only the 5% gum arabic vehicle.

[8] = in vivo; settings: mouse, in vivo, po
Protocol: as §3, §4, §5, §6

With `CSCCC(NC(C)=O)C(=O)Oc1ccc(NC(C)=O)cc1` (racemic) [Compound A, N-acetyl-para-aminophenyl N'-acetyl-D,L-methionate] the “serum "total" or "enzymatic" NAPA profile” value [1] was “does not however give the acute peak observed at one-half an hour after the administration of NAPA+methionine”, the half-life ([2]; pH 7.2, tris buffer pH 7.2, 30° C.) was roughly 7.92 h and the half-life ([2]; pH 7.2, tris buffer pH 7.2, 37° C.) was 4 h. The “toxicity compared with NAPA” value ([3]; oral, rats) was “far less toxic than NAPA”, the “mortality (in words)” value ([3]; oral, rats, 1-8 g/kg) was “no mortality was recorded at any of the different dose levels” and the “mortality (in words)” value ([3]; rat, in vivo, po) was “did not induce any mortality at dose levels up to 8 g/kg”. For the same compound, the LD50 at 24 h [4] was greater than 8000 mg/kg, the LD50 at 168 h [4] was greater than 8000 mg/kg and the mortality at 24 h ([4]; 1000 mg/kg) was 0%. The mortality at 48 h ([4]; 1000 mg/kg) was 0%, the mortality at 72 h ([4]; 1000 mg/kg) was 0% and the mortality at 96 h ([4]; 1000 mg/kg) was 0%. It also gave a mortality at 120 h ([4]; 1000 mg/kg) of 0%, a mortality at 144 h ([4]; 1000 mg/kg) of 0% and a mortality at 168 h ([4]; 1000 mg/kg) of 0%. For the same compound, the mortality at 24 h ([4]; 2000 mg/kg) was 0%, the mortality at 48 h ([4]; 2000 mg/kg) was 0% and the mortality at 72 h ([4]; 2000 mg/kg) was 0%. It also gave a mortality at 96 h ([4]; 2000 mg/kg) of 0%, a mortality at 120 h ([4]; 2000 mg/kg) of 0% and a mortality at 144 h ([4]; 2000 mg/kg) of 0%. The mortality at 168 h ([4]; 2000 mg/kg) was 0%, the mortality at 24 h ([4]; 4000 mg/kg) was 0% and the mortality at 48 h ([4]; 4000 mg/kg) was 0%. It also gave a mortality at 72 h ([4]; 4000 mg/kg) of 0%, a mortality at 96 h ([4]; 4000 mg/kg) of 0% and a mortality at 120 h ([4]; 4000 mg/kg) of 0%. The mortality at 144 h ([4]; 4000 mg/kg) was 0%, the mortality at 168 h ([4]; 4000 mg/kg) was 0% and the mortality at 24 h ([4]; 8000 mg/kg) was 0%. The mortality at 48 h ([4]; 8000 mg/kg) was 0%, the mortality at 72 h ([4]; 8000 mg/kg) was 0% and the mortality at 96 h ([4]; 8000 mg/kg) was 0%. It also gave a mortality at 120 h ([4]; 8000 mg/kg) of 0%, a mortality at 144 h ([4]; 8000 mg/kg) of 0% and a mortality at 168 h ([4]; 8000 mg/kg) of 0%. For the same compound, the antipyretic effect [5] was “virtually identical upon an equimolar basis of comparison with that of the well-tried analgesic NAPA”, the “Percentage Pain-Threshold (injected vs non-injected paw)” value ([6]; 1 millimole/kg oral (NAPA 151, A 324 mg/kg), 1 hr. (3.5 hrs. from yeast)) was 44 ± 3.8 Percentage and the “Percentage Pain-Threshold (injected vs non-injected paw)” value ([6]; 1 millimole/kg oral (NAPA 151, A 324 mg/kg), 3 hrs. (5.5 hrs. from yeast)) was 41 ± 2.9 Percentage. For the same compound, the “Percentage Pain-Threshold (injected vs non-injected paw)” value ([6]; 1 millimole/kg oral (NAPA 151, A 324 mg/kg), 5 hrs. (7.5 hrs. from yeast)) was 50 ±4.2 Percentage, the “Percentage Pain-Threshold (injected vs non-injected paw)” value ([6]; 1 millimole/kg oral (NAPA 151, A 324 mg/kg), 22 hrs. (24.5 hrs. from yeast)) was 50 ± 2.4 Percentage and the analgesic effect ([6]; 2 millimoles/kg level, oral) was “statistically-significant analgesic effect at the 2 millimoles/kg level, which is at least as great as N-acetyl-para-aminophenol (NAPA)”. The “Percentage Pain-Threshold (injected vs non-injected paw)” value ([6]; 2 millimoles/kg oral (NAPA 302, A 648 mg/kg), 1 hr. (3.5 hrs. from yeast)) was 53 ± 3.3 Percentage, the “Percentage Pain-Threshold (injected vs non-injected paw)” value ([6]; 2 millimoles/kg oral (NAPA 302, A 648 mg/kg), 3 hrs. (5.5 hrs. from yeast)) was 54 ±3.2 Percentage and the “Percentage Pain-Threshold (injected vs non-injected paw)” value ([6]; 2 millimoles/kg oral (NAPA 302, A 648 mg/kg), 5 hrs. (7.5 hrs. from yeast)) was 59 ± 2.7 Percentage. For the same compound, the “Percentage Pain-Threshold (injected vs non-injected paw)” value ([6]; 2 millimoles/kg oral (NAPA 302, A 648 mg/kg), 22 hrs. (24.5 hrs. from yeast)) was 54 ± 1.9 Percentage, the “P of pain-threshold (t-test versus control)” value ([6]; 1 hr.) was less than 0.02 and the “P of pain-threshold (t-test versus control)” value ([6]; 3 hrs.) was less than 0.02. The “P of pain-threshold (t-test versus control)” value ([6]; 5 hrs.) was less than 0.01, the “P of pain-threshold (t-test versus control)” value ([6]; 22 hrs.) was less than 0.01 and the behaviour / symptoms ([7]; mouse, in vivo) was “hypothermia, tremor, tail extension, epistaxis and acrocyanosis, followed by death”. The “LD50 compared with NAPA” value ([7]; oral, mice) was “several times greater than that of the well-tried analgesic NAPA”, the LD50 at 24 h [8] was no less than 4000 mg/kg and the LD50 at 168 h [8] was no less than 4000 mg/kg.
